Measurements published in US8871751B2, “Compositions and methods relating to nuclear hormone and steroid hormone receptors including inhibitors of estrogen receptor alpha-mediated gene expression and inhibition of breast cancer” (The Board of Trustees of the University of Illinois, priority 2008, dated 2014).
pIC50: −log10 of the molar value. Values joined by “and” are separate entries in the source; they are usually repeats but may differ in a detail not shown here. Equal values may be shown once.

Target: T1, ERα (Homo sapiens, UniProt P03372)
T1 sequence (P03372 1-595): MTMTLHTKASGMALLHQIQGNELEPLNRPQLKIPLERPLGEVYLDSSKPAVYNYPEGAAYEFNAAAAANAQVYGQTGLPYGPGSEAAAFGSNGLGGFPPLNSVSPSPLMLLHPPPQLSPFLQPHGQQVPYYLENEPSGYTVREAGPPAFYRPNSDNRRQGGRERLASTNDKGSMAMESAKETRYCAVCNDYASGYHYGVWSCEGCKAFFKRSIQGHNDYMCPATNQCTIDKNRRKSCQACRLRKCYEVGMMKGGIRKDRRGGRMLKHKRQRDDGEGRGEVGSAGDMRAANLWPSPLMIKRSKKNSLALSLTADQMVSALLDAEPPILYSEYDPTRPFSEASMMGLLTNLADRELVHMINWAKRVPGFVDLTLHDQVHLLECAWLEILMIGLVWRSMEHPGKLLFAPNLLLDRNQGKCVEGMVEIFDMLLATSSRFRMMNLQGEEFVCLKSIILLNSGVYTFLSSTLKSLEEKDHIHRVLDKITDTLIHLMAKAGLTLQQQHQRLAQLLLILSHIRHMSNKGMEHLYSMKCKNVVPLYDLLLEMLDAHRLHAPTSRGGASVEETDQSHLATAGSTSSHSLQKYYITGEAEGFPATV
Assay: PI-9 mRNA induction in tamoxifen-resistant MCF7ERαHA cells (qRT-PCR)
Format: cell-based
Set-up: endogenous in cells
Conditions: Dox
Text: A model for tamoxifen-resistant breast cancers that overexpress ERα is MCF7ERαHA cells, which is a tetracycline-inducible MCF-7 model in which doxycycline (Dox) induces overexpression of ERα (40,41). In contrast to MCF-7 cells, in these cells Tam and OHT are potent agonists (2,42) and OHT, which stabilizes ERα, induced proteinase inhibitor 9 (PI-9) mRNA and protein more effectively than E2 (2,43). MCF7ERαHA cells were maintained in 10% 6XCD-treated FBS (40,41). All cells were in 0.1% DMSO vehicle and contained the indicated concentrations of TPBM added at the same time as the E2 or OHT. To induce PI-9 mRNA, the cells were treated with 0.5 μg/ml doxycycline to induce ERα and ethanol vehicle, 100 pM E2 or 500 pM OHT for 24 h, mRNA was extracted and PI-9 mRNA levels were determined by quantitative RT-PCR as described (2).
Endogenous Gene Expression. MCF-7 cells or MCF7ERαHA cells were maintained for 4 days in medium containing 5% CD calf serum (MCF-7 cells) or 10% 6×CD-FBS (MCF7ERαHA cells). In assays of TPSF inhibition of PI-9 induction, cells were plated, incubated for 24 hours in the indicated concentrations of TPSF and then maintained 4 hours with and without E2, with and without TPSF. To induce ERα, MCF7ERαHA cells were also maintained in 0.5 μg/ml Dox for 24 hours prior to addition of E2 or OHT with or without TPSF. For induction of cyclin D1, 24 hours after plating the cells, E2 with and without TPSF was added, the cells were maintained for 24 hours, RNA was extracted and mRNA levels were determined by quantitative RT-PCR as described (19, 26). Actin mRNA levels were used as the qRT-PCR internal standard. The primers and sequences used in qRT-PCR were as follows.

Row | inhibition of OHT-ERα induction of PI-9 mRNA (30 μM, 500 pM OHT) [%] | pIC50 (100 pM E2, 24 h, read-out: IC50 for inhibition of E2-ERα induction of PI-9 mRNA) | effect on E2-mediated induction of PI-9 mRNA (10 μM, 100 pM E2) | effect on OHT-ERα induction of PI-9 mRNA (10 μM, 500 pM OHT) | SMILES
1 | 48 | 5.05 and 5.07 |  |  | Cn1c(=O)c2nc(CSCc3ccccc3)[nH]c2n(C)c1=O [Compound 95910, 8-Benzylsulfanylmethyl-1,3-dimethyl-3,7-dihydro-purine-2,6-dione]
2 |  |  | blocked | blocked | Cn1c(=S)c2[nH]c(SCCCC(=O)c3ccc(F)cc3)nc2n(C)c1=O [TPSF, Butyrophenone, p-fluoro-4-(1,2,3,6,-tetrahydro-1,3-dimethyl-2-oxo-6-thionopurin-8-ylthio)]
